These results are taken from ChEMBL document CHEMBL1139090, “Synthesis of potent and tissue-selective androgen receptor modulators (SARMs): 2-(2,2,2)-Trifluoroethyl-benzimidazole scaffold” (Bioorg Med Chem Lett, 2007).

Active and inactive are the calls of the source. The calls are words filed in the database; no cut-off is given here.

The subject of series [1] is Rattus norvegicus. Kind of series: Inhibition of prostate weight in immature Sprague-Dawley rat at 2 mg/day, sc relative to testosterone. It is filed as functional, Prostate gland. Particulars: for Activity: Prostate gland.
Series [2] is filed under the species Rattus norvegicus. Kind of series: Stimulation of levator ani muscle weight in immature Sprague-Dawley rat at 2 mg/day relative to testosterone. It is filed as functional.
Series [3] is filed under the species Rattus norvegicus. Kind of series: Stimulation of levator ani muscle weight in immature Sprague-Dawley rat. It is filed as functional.
The species named for series [4] is Rattus norvegicus. Kind of series: Toxicity in immature Sprague-Dawley rat at 3 mg/day. It is filed as organism-based. As to conditions: in vivo.
The species named for series [5] is Rattus norvegicus. Kind of series: Stimulation of levator ani muscle weight in mature Sprague-Dawley rat. It is filed as functional.
The target in a further series is T1, Androgen receptor (Homo sapiens, UniProt P10275).
T1 sequence (P10275 whole entry): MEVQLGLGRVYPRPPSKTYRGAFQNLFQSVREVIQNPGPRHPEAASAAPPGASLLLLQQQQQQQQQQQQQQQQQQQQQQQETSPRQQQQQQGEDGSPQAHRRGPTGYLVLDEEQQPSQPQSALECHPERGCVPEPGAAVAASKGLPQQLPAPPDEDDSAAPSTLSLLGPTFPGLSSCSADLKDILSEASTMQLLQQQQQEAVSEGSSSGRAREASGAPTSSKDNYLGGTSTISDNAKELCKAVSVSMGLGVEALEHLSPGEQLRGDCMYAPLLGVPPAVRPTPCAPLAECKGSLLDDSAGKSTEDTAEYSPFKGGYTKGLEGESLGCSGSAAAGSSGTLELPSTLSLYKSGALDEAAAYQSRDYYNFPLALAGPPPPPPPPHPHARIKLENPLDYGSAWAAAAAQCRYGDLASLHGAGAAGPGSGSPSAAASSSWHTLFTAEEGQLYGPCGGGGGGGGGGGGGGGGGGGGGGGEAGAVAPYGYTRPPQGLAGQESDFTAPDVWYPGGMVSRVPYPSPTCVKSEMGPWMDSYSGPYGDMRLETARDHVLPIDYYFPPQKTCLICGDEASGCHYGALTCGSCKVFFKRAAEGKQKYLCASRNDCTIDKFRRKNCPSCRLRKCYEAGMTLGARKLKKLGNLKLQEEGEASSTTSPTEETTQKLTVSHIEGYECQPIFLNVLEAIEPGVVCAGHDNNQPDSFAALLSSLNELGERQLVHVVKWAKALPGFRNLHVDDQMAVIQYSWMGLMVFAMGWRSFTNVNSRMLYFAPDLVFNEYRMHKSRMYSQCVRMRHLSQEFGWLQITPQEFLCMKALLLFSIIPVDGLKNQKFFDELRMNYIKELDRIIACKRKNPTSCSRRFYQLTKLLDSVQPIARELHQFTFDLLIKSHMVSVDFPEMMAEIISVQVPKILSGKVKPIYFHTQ
Kind of series: Binding affinity at androgen receptor expressed in COS cells by whole cell binding assay. It is filed as cell-based.

Series [6] is filed under the species Rattus norvegicus. The series can be described thus: Inhibition of prostate weight in immature Sprague-Dawley rat. It is filed as functional, Prostate gland.

Consider `C/C=C/C(O)(c1nc2cc(Cl)c(Cl)cc2[nH]1)C(F)(F)F` (stereo unspecified), for which the Inhibition (in general, the relative decrease from the control value, in per cent) in the series on Rattus norvegicus [1] was found to be 61%. In addition, in the series filed under Rattus norvegicus [2], the Activity is given as 23%.
As for `C#CCC(O)(c1nc2cc(Cl)c(Cl)cc2[nH]1)C(F)(F)F` (stereo unspecified), in the series with Rattus norvegicus [1], the Inhibition is reported as 68%. The molecule also displayed an Activity in the series filed under Rattus norvegicus [2] of 71%.
In the same order, the values of `OC(c1ccccc1)(c1nc2cc(Cl)c(Cl)cc2[nH]1)C(F)(F)F` (stereo unspecified) are 61% and “inactive”.
As to `C=C=CC(O)(c1nc2cc(Cl)c(Cl)cc2[nH]1)C(F)(F)F` (stereo unspecified), the Inhibition in the series with Rattus norvegicus [1] was determined as 85%. For the same molecule, the Activity in the series filed under Rattus norvegicus [2] turned out to be 99%. The molecule further gave an ED50 in the series listed under Rattus norvegicus [3] of 0.075 mg/day.
Take `CCC(C)(C)C(O)(c1nc2cc(Cl)c(Cl)cc2[nH]1)C(F)(F)F` (stereo unspecified): the Inhibition in the series with Rattus norvegicus [1] was found to be 42%. The Activity in the series listed under Rattus norvegicus [2] is reported as 11%.
In the same order, the values of `C=C(C)C(O)(c1nc2cc(Cl)c(Cl)cc2[nH]1)C(F)(F)F` (stereo unspecified) are 127% and “inactive”.
Take `C=C=C(C)C(O)(c1nc2cc(Cl)c(Cl)cc2[nH]1)C(F)(F)F` (stereo unspecified): in the series with Rattus norvegicus [1], the Inhibition turned out to be 78%. The same molecule yielded an Activity in the series filed under Rattus norvegicus [2] of 15%.
In the same order, the values of `CC(C)=C(C)C(O)(c1nc2cc(Cl)c(Cl)cc2[nH]1)C(F)(F)F` (stereo unspecified) are 47% and “inactive”.
In the same order, the values of `FC(F)(F)C1(c2nc3cc(Cl)c(Cl)cc3[nH]2)CCCN1` (stereo unspecified) are 35% and 4%.
As for `N#CCC(O)(c1nc2cc(Cl)c(Cl)cc2[nH]1)C(F)(F)F` (stereo unspecified), the Inhibition with Rattus norvegicus [1] is listed as 9%. The molecule also gave an Activity in the series listed under Rattus norvegicus [2] of 126%. The ED50 in the series listed under Rattus norvegicus [3] was 0.03 mg/day.
As for `CCCC(O)(c1nc2cc(Cl)c(Cl)cc2[nH]1)C(F)(F)F` (stereo unspecified), the Inhibition with Rattus norvegicus [1] was 63%. The Activity in the series filed under Rattus norvegicus [2] was 67%.
Consider `FC(F)(F)C1(c2nc3cc(Cl)c(Cl)cc3[nH]2)C=CCN1` (stereo unspecified), for which the Inhibition with Rattus norvegicus [1] amounted to 57%. For the same molecule, the Activity in the series filed under Rattus norvegicus [2] came out at 8%.
On to `OC(CSCC(F)(F)F)(c1nc2cc(Cl)c(Cl)cc2[nH]1)C(F)(F)F` (stereo unspecified), for which, in the series with Rattus norvegicus [1], the result was inactive. Besides, the Activity in the series listed under Rattus norvegicus [2] is given as 26%.
Take `C=C(C)CC(O)(c1nc2cc(Cl)c(Cl)cc2[nH]1)C(F)(F)F` (stereo unspecified): the Inhibition in the series with Rattus norvegicus [1] was determined as 59%. The Activity in the series filed under Rattus norvegicus [2] turned out to be 17%.
In the case of `CCC(O)(c1nc2cc(Cl)c(Cl)cc2[nH]1)C(F)(F)F` (stereo unspecified), in the series with Rattus norvegicus [1], the Inhibition was found to be 25%. The results for the Activity result in the series listed under Rattus norvegicus [4] and in the series filed under Rattus norvegicus [2] were “Toxic” and 106%, respectively.
`FC(F)(F)C1(c2nc3cc(Cl)c(Cl)cc3[nH]2)C=CCO1` (stereo unspecified): the result with Rattus norvegicus [1] was inactive. Moreover, the Activity in the series listed under Rattus norvegicus [2] turned out to be 50%.
For `OC(Cc1ccccc1)(c1nc2cc(Cl)c(Cl)cc2[nH]1)C(F)(F)F` (stereo unspecified), in the series with Rattus norvegicus [1], the Inhibition came out at 86%. For the same molecule, the outcome in the series filed under Rattus norvegicus [2] was inactive.
On the same counts, the results for `C/C=C/CC(O)(c1nc2cc(Cl)c(Cl)cc2[nH]1)C(F)(F)F` (stereo unspecified) are 74% and 10%.
In the case of `C=CC(O)(c1nc2cc(Cl)c(Cl)cc2[nH]1)C(F)(F)F` (stereo unspecified), the Inhibition with Rattus norvegicus [1] came to 56%. Besides, the Activity in the series listed under Rattus norvegicus [2] was determined as 82%. Also, the results for the ED50 in the series listed under Rattus norvegicus [5] and in the series filed under Rattus norvegicus [3] were under 0.3 mg/kg and 0.04 mg/day, respectively. For the same molecule, the IC50 (in general, the point on the concentration scale where inhibition reaches its midpoint) on Androgen receptor stood at 7 nM.
`C[C@](O)(CS(=O)(=O)c1ccc(F)cc1)C(=O)Nc1ccc(C#N)c(C(F)(F)F)c1` [(R)-BICALUTAMIDE]: in the series on Rattus norvegicus [1], the Inhibition was found to be 70%. Also, the result in the series filed under Rattus norvegicus [2] was inactive.
`CCSCC(O)(c1nc2cc(Cl)c(Cl)cc2[nH]1)C(F)(F)F` (stereo unspecified): in the series with Rattus norvegicus [1], the Inhibition came out at 31%. In the series filed under Rattus norvegicus [2], this molecule displayed an Activity of 96%. Besides, the IC50 at Androgen receptor amounted to 17 nM. This molecule yielded an ED50 in the series filed under Rattus norvegicus [3] of 0.1 mg/day.
As to `OC(Cc1ccc(F)cc1)(c1nc2cc(Cl)c(Cl)cc2[nH]1)C(F)(F)F` (stereo unspecified), the Inhibition with Rattus norvegicus [1] is 72%. Moreover, the result in the series listed under Rattus norvegicus [2] was inactive.
Take `CC(C)C(O)(c1nc2cc(Cl)c(Cl)cc2[nH]1)C(F)(F)F` (stereo unspecified): the Inhibition in the series with Rattus norvegicus [1] is 33%. Besides, in the series listed under Rattus norvegicus [2], the Activity is reported as 87%. Also, the IC50 at Androgen receptor came to 2 nM. In the series listed under Rattus norvegicus [3], the ED50 stood at 0.05 mg/day.
As for `C=CCC(O)(c1nc2cc(Cl)c(Cl)cc2[nH]1)C(F)(F)F` (stereo unspecified), the Inhibition in the series on Rattus norvegicus [1] is listed as 87%. In the series filed under Rattus norvegicus [2], this molecule displayed an Activity of 34%. In the series listed under Rattus norvegicus [6], the ID50 worked out at 0.67 mg/day. In the series listed under Rattus norvegicus [3], the ED50 was found to be 1.4 mg/day.
Regarding `FC(F)(F)C1(c2nc3cc(Cl)c(Cl)cc3[nH]2)CCCO1` (stereo unspecified), the Inhibition with Rattus norvegicus [1] is on record as 55%. Besides, the Activity in the series listed under Rattus norvegicus [2] is listed as 64%.
Take `CC(C)=CC(O)(c1nc2cc(Cl)c(Cl)cc2[nH]1)C(F)(F)F` (stereo unspecified): in the series with Rattus norvegicus [1], the Inhibition was found to be 45%. For the same molecule, the Activity in the series filed under Rattus norvegicus [2] is recorded as 13%.
On to `CC(C)=CCC(O)(c1nc2cc(Cl)c(Cl)cc2[nH]1)C(F)(F)F` (stereo unspecified), for which the Inhibition with Rattus norvegicus [1] came out at 71%. Further, the outcome in the series filed under Rattus norvegicus [2] was inactive.
Consider `C/C=C\C(O)(c1nc2cc(Cl)c(Cl)cc2[nH]1)C(F)(F)F` (stereo unspecified), for which the Inhibition in the series with Rattus norvegicus [1] was determined as 70%. In the series listed under Rattus norvegicus [2], this molecule came in with an Activity of 73%. In the series filed under Rattus norvegicus [3], this molecule showed an ED50 of 0.11 mg/day.
Consider `CC#CC(O)(c1nc2cc(Cl)c(Cl)cc2[nH]1)C(F)(F)F` (stereo unspecified), for which the Inhibition in the series with Rattus norvegicus [1] is listed as 79%. Moreover, the outcome in the series filed under Rattus norvegicus [2] was inactive.
